Source: US9447085B2, “Iminothiadiazine dioxides containing a thioamide, amidine, or amide oxime group as BACE inhibitors, compositions, and their use” (Merck Sharp & Dohme Corp., priority 2012, dated 2016)
pKi: −log10 of the molar value.

How the values were obtained:
[1] = molecular target: soluble human BACE1 catalytic domain (Homo sapiens (Human), UniProt P56817); assay: BACE1 HTRF FRET Assay; format: biochemical; conditions: for pKi: Ki calculated from IC50 using the Cheng-Prusoff equation
Source text: A homogeneous time-resolved FRET assay can be used to determine IC50 values for inhibitors of the soluble human BACE1 catalytic domain. This assay monitors the increase of 620 nm fluorescence that resulted from BACE1 cleavage of an APPswedish APP^swe mutant peptide FRET substrate (QSY7-[…]-Europium-amide). This substrate contains an N-terminal QSY7 moiety that serves as a quencher of the C-terminal Europium fluorophore (620 nm Em). In the absence of enzyme activity, 620 nm fluorescence is low in the assay and increased linearly over 3 hours in the presence of uninhibited BACE1 enzyme Inhibition of BACE1 cleavage of the QSY7-APP^swe-Eu substrate by inhibitors is manifested as a suppression of 620 nm fluorescence.
Reactions are initiated by addition of 10 μl of 600 nM QSY7-APP^swe-Eu substrate (200 nM final) to give a final reaction volume of 30 μl in a 384 well Nunc HTRF plate. The reactions are incubated at 30° C. for 1.5 hours. The 620 nm fluorescence is then read on a Rubystar HTRF plate reader (BMG Labtechnologies) using a 50 millisecond delay followed by a 400 millisecond acquisition time window Inhibitor IC50 values are derived from non-linear regression analysis of concentration response curves.

[2] = molecular target: purified human autoBACE-2 (Homo sapiens (Human), UniProt Q9Y5Z0); assay: BACE-2 Assay (BACE-HTRF assay); format: biochemical; conditions: Ki calculated from IC50 using the Cheng-Prusoff equation; read-out: BACE2 Ki
Chain of purified human autoBACE-2 (Q9Y5Z0 63-473): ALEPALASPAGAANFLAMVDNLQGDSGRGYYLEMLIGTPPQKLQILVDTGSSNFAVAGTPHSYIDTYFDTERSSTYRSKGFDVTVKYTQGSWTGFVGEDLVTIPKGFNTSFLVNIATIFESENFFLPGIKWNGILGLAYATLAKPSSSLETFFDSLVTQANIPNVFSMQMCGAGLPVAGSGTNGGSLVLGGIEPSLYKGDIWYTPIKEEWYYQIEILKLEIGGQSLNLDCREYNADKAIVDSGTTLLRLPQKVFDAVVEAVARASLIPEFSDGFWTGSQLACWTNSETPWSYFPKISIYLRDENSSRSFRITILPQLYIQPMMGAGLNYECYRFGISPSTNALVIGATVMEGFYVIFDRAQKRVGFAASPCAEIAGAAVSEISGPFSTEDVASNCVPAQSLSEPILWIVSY
Experimental: Inhibitor IC50s at purified human autoBACE-2 are determined in a time-resolved endpoint proteolysis assay that measures hydrolysis of the QSY7-[…]-Eu-amide FRET peptide substrate (BACE-HTRF assay). […] DMSO is present at 5% final concentration in the assay. Following laser excitation of sample wells at 320 nm, the fluorescence signal at 620 nm is collected for 400 ms following a 50 μs delay on a RUBYstar HTRF plate reader (BMG Labtechnologies). Raw RFU data is normalized to maximum (1.0 nM BACE/DMSO) and minimum (no enzyme/DMSO) RFU values. […] The Ki values are calculated from the IC50 using the Cheng-Prusoff equation.

Chain of soluble human BACE1 catalytic domain (P56817 75-416): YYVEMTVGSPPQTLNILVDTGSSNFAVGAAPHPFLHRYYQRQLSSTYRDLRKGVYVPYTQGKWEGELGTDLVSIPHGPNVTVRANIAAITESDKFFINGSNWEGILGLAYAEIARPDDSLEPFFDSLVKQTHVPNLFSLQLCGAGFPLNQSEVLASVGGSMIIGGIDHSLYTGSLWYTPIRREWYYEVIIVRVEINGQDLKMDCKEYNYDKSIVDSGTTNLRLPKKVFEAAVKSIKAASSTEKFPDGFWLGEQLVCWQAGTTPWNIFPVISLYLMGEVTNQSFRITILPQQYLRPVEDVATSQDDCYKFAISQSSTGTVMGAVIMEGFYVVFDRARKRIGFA

SMILES	inhibition at 10 µM ([1]; @ 10 uM)	pKi [2]	pKi [1]
CO/N=C(/Nc1ccc(F)c([C@]2(C)CS(=O)(=O)N(C)C(=N)N2)c1)c1ccc(OC)cn1 [Example 5]	47%	5.84	
COc1cnc(C(=S)Nc2ccc(F)c([C@]3(C)CS(=O)(=O)N(C)C(=N)N3)c2)cn1 [Example 4c]		8.40	8.52
CN1C(=N)N[C@](C)(c2cc(NC(=S)c3ccc(F)cn3)cc(F)c2F)CS1(=O)=O [Example 12]		8.52	7.77
COc1ccc(C(=S)Nc2cc(F)c(F)c([C@]3(C)CS(=O)(=O)N(C)C(=N)N3)c2)nc1 [Example 9]		7.82	7.24
CO/N=C(/Nc1ccc(F)c([C@]2(C)CS(=O)(=O)N(C)C(=N)N2)c1)c1ccc(Cl)cn1 [Example 6]		7.24	6.47
CN1C(=N)N[C@](C)(c2cc(NC(=S)c3ccc(Cl)cn3)ccc2F)CS1(=O)=O [Example 1]		9.00	8.04
COCC(=S)Nc1ccc(F)c([C@]2(C)CS(=O)(=O)N(C)C(=N)N2)c1 [Example 3]		8.70	6.82
COc1cnc(C(=S)Nc2cc(F)c(F)c([C@]3(C)CS(=O)(=O)N(C)C(=N)N3)c2)cn1 [Example 14]		7.74	8.10
CN1C(=N)N[C@](C)(c2cc(NC(=S)c3ccc(C(F)(F)F)cn3)cc(F)c2F)CS1(=O)=O [Example 13]		7.68	7.52
CN1C(=N)N[C@](C)(c2cc(NC(=S)c3ccc(F)cn3)ccc2F)CS1(=O)=O [Example 4b]		8.70	7.60
COCC(=S)Nc1cc(F)c(F)c([C@]2(C)CS(=O)(=O)N(C)C(=N)N2)c1 [Example 10]		8.22	6.73
CN1C(=N)N[C@](C)(c2cc(NC(=N)c3ccc(Br)cn3)ccc2F)CS1(=O)=O [Example 7]		6.83	6.43
CN1C(=N)N[C@](C)(c2cc(NC(=S)c3ccc(Cl)cn3)cc(F)c2F)CS1(=O)=O [Example 8]		8.70	8.05
CN1C(=N)N[C@](C)(c2cc(NC(=S)C(F)F)cc(F)c2F)CS1(=O)=O [Example 11]		7.55	7.02
CN1C(=N)N[C@](C)(c2cc(NC(=S)C(F)F)ccc2F)CS1(=O)=O [Example 4]		8.15	7.08
COc1ccc(C(=S)Nc2ccc(F)c([C@]3(C)CS(=O)(=O)N(C)C(=N)N3)c2)nc1 [Example 2]		8.10	7.24
